In general, Km refers to the substrate concentration at which the rate is half of its maximum.

For assay [1], the system named is T1, Ks5A7.
T1 construct: full length, 452 aa, 52,509 Da (53,573 Da tagged), C-terminal 6xHis tag (pET29b, primer-encoded LE linker) kept; E. coli Rosetta (DE3); ~160 kDa by gel filtration; GH1; N-terminus from primer MMKFNENFVWG, C-terminus IEENGENL; silent NdeI site removal
Put plainly: released glucose, Amplex Red glucose oxidase assay. It counts as biochemical, metagenome (uncultured bacterium, Kusaya gravy). As to conditions: McIlvaine buffer pH 5.5, 45°C. An excerpt: released glucose, Amplex Red glucose oxidase assay on Ks5A7

In assay [2] the test system is T1, Ks5A7. Put plainly: p-nitrophenol release, […] nm, initial rates. The format is biochemical, metagenome (uncultured bacterium, Kusaya gravy). As to conditions: McIlvaine buffer pH 5.5, 45°C, no glucose added.

The structures appear in SMILES notation.

With `OC[C@H]1O[C@@H](O[C@H]2[C@H](O)[C@@H](O)C(O)O[C@@H]2CO)[C@H](O)[C@@H](O)[C@@H]1O` (stereo partly drawn) [Cellobiose], the Km in assay [1] is 358 ± 55 µM.
Regarding `OC[C@H]1O[C@@H](O[C@H]2[C@H](O)[C@@H](O)[C@H](O[C@H]3[C@H](O)[C@@H](O)[C@H](O[C@H]4[C@H](O)[C@@H](O)[C@H](O[C@H]5[C@H](O)[C@@H](O)C(O)O[C@@H]5CO)O[C@@H]4CO)O[C@@H]3CO)O[C@@H]2CO)[C@H](O)[C@@H](O)[C@@H]1O` (stereo partly drawn) [Cellopentaose], the Km in assay [1] is 132 ± 11 µM.
Same read-out and setting: in the case of `OC[C@H]1O[C@@H](O[C@H]2[C@H](O)[C@@H](O)[C@H](O[C@H]3[C@H](O)[C@@H](O)[C@H](O[C@H]4[C@H](O)[C@@H](O)C(O)O[C@@H]4CO)O[C@@H]3CO)O[C@@H]2CO)[C@H](O)[C@@H](O)[C@@H]1O` (stereo partly drawn) [Cellotetraose] it was 160 ± 12 µM; in that of `OC[C@H]1O[C@@H](O[C@H]2[C@H](O)[C@@H](O)[C@H](O[C@H]3[C@H](O)[C@@H](O)C(O)O[C@@H]3CO)O[C@@H]2CO)[C@H](O)[C@@H](O)[C@@H]1O` (stereo partly drawn) [Cellotriose], 163 ± 16 µM.
Take `C[C@H]1O[C@@H](Oc2ccc([N+](=O)[O-])cc2)[C@H](O)[C@@H](O)[C@H]1O` [pNPFuc]: the Km in assay [2] turned out to be 152 ± 4 µM.
Same read-out and setting: in the case of `O=[N+]([O-])c1ccc(O[C@@H]2O[C@H](CO)[C@@H](O)[C@H](O)[C@H]2O)cc1` [pNPGlc] it was 78 ± 2 µM.
